{"source": "patent US20090298820A1", "about": "“3-SUBSTITUTED-1H-PYRROLO[2,3-B]PYRIDINE AND 3-SUBSTITUTED-1H-PYRROLO[3,2-B]PYRIDINE COMPOUNDS, THEIR USE AS MTOR KINASE AND PI3 KINASE INHIBITORS, AND THEIR SYNTHESES” (Wyeth, priority 2008, published 2009)", "format_in_all_cases": "biochemical", "key": {"PI3Kα": {"molecular_target": "PI3Kα (Homo sapiens, UniProt P42336)", "sequence (P42336 whole entry, species assumed)": "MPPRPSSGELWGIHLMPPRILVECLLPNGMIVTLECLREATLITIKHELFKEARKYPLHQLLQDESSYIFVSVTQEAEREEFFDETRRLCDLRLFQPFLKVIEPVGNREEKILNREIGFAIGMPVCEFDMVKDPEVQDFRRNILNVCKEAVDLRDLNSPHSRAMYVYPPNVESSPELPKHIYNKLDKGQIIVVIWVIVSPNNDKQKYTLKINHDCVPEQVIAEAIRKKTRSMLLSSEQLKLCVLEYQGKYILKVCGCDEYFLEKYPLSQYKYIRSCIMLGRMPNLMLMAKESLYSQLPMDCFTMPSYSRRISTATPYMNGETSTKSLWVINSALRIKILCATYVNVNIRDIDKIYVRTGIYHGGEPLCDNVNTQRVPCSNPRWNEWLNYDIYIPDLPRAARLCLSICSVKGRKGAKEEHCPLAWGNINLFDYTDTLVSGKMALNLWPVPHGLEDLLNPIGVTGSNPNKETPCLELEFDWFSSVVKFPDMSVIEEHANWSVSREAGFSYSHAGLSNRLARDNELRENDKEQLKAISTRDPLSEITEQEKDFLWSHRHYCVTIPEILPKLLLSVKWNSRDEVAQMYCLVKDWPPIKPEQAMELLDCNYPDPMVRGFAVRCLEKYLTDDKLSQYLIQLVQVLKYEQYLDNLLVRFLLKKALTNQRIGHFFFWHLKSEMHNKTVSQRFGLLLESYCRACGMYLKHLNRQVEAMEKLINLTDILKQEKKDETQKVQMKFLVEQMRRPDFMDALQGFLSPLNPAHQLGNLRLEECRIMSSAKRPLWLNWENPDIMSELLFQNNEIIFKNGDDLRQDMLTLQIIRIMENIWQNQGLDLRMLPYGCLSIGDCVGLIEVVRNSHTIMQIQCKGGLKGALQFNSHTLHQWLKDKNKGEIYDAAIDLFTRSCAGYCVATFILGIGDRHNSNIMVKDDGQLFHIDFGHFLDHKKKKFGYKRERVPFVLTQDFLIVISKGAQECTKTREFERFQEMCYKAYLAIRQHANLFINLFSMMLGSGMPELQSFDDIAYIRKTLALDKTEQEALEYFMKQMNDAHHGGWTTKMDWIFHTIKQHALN", "sequence (P27986 whole entry partner, species assumed)": "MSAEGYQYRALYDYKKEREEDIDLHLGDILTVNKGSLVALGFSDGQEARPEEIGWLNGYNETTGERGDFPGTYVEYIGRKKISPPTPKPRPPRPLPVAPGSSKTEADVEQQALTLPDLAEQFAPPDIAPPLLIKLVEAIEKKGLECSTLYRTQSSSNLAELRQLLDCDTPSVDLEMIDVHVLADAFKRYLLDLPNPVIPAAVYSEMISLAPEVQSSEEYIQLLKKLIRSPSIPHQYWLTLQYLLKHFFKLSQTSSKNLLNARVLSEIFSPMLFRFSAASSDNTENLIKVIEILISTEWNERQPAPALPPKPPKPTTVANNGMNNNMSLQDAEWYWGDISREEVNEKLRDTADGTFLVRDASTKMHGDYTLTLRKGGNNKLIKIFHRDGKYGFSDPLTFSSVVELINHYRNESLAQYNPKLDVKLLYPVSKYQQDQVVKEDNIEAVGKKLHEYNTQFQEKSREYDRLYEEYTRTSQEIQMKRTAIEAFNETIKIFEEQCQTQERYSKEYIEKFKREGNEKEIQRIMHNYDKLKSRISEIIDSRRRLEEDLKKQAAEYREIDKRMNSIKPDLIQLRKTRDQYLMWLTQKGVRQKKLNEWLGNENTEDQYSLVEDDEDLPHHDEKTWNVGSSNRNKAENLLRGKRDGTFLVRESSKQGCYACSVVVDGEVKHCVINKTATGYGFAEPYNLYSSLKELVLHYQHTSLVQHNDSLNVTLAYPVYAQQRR", "assay": "PI3K-alpha fluorescence polarization assay", "conditions": "read-out: PI3Kα Median IC50"}, "PI3Kγ": {"molecular_target": "PI3Kγ (Homo sapiens, UniProt P48736)", "sequence (P48736 whole entry, species assumed)": "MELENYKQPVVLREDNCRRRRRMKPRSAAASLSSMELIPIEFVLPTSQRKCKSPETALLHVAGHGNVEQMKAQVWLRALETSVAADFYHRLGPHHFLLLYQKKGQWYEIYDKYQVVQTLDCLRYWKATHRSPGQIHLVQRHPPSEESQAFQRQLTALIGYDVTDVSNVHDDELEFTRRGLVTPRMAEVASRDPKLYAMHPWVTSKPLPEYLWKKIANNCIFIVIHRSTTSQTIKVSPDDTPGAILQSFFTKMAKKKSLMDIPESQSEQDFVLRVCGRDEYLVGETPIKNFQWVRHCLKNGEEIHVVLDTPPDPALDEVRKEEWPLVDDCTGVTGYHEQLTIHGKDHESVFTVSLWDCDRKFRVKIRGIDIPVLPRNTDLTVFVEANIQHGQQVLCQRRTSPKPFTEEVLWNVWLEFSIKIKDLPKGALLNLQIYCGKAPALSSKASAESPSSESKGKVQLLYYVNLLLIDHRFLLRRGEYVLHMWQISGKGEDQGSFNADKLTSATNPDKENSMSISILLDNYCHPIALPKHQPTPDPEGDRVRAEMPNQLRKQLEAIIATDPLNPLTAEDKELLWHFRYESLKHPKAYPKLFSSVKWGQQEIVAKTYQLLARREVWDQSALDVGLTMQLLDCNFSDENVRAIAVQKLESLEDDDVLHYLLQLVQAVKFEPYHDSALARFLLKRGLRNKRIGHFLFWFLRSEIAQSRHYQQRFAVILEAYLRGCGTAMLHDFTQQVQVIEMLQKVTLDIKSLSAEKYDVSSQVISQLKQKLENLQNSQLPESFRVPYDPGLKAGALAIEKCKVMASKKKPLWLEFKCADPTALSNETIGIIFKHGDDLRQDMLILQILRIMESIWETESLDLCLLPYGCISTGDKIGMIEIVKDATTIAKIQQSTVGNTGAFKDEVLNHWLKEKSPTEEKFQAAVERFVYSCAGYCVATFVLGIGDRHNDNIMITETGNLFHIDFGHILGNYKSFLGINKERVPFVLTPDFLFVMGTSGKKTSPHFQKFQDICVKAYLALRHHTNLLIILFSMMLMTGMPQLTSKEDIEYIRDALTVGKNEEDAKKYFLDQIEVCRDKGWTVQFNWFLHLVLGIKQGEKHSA", "assay": "PI3K-gamma fluorescence polarization assay", "conditions": "read-out: PI3Kγ Median IC50"}, "mTOR": {"molecular_target": "mTOR (Homo sapiens, UniProt P42345)", "assay": "mTOR enzyme assay (DELFIA format, His6-S6K substrate)", "conditions": "read-out: mTOR Kinase Median IC50"}}, "note": "pIC50: −log10 of the molar value.", "data": [{"smiles": "CN1CCN(c2ccc(NC(=O)Nc3ccc4c(c3)C(=O)/C(=C/c3cn(C)c5nccc(N6CC7CCC(C6)O7)c35)O4)cc2)CC1", "note": "[Compound 229, 1-[(2Z)-2-{[1-methyl-4-(8-oxa-3-azabicyclo[3.2.1]oct-3-yl)-1H-pyrrolo[2,3-b]pyridin-3-yl]methylidene}-3-oxo-2,3-dihydro-1-benzofuran-5-yl]-3-[4-(4-methylpiperazin-1-yl)phenyl]urea]", "values": [{"measurement": "pIC50", "setting": "PI3Kα", "result": 5.64}, {"measurement": "pIC50", "setting": "PI3Kγ", "result": 5.18}, {"measurement": "pIC50", "setting": "mTOR", "result": 6.55}]}, {"smiles": "CN1CCN(c2ccc(NC(=O)Nc3ccc4c(c3)C(=O)/C(=C/c3cn(C)c5nccc(N6CCC(C(=O)N(C)C)CC6)c35)O4)cn2)CC1", "note": "[Compound 230, N,N-dimethyl-1-(1-methyl-3-{(Z)-[5-({[6-(4-methylpiperazin-1-yl)pyridin-3-yl]carbamoyl}amino)-3-oxo-1-benzofuran-2(3H)-ylidene]methyl}-1H-pyrrolo[2,3-b]pyridin-4-yl)piperidine-4-carboxamide]", "values": [{"measurement": "pIC50", "setting": "PI3Kα", "result": 4.96}, {"measurement": "pIC50", "setting": "PI3Kγ", "result": "< 5.00"}, {"measurement": "pIC50", "setting": "mTOR", "result": 7.13}]}, {"smiles": "CN1CCN(c2ccc(NC(=O)Nc3ccc4c(c3)C(=O)/C(=C/c3cn(C)c5nccc(N6CC7CCC(C6)O7)c35)O4)cn2)CC1", "note": "[Compound 231, 1-[(2Z)-2-{[1-methyl-4-(8-oxa-3-azabicyclo[3.2.1]oct-3-yl)-1H-pyrrolo[2,3-b]pyridin-3-yl]methylidene}-3-oxo-2,3-dihydro-1-benzofuran-5-yl]-3-[6-(4-methylpiperazin-1-yl)pyridin-3-yl]urea]", "values": [{"measurement": "pIC50", "setting": "PI3Kα", "result": 6.15}, {"measurement": "pIC50", "setting": "PI3Kγ", "result": "< 5.00"}, {"measurement": "pIC50", "setting": "mTOR", "result": 7.50}]}, {"smiles": "Cn1cncc1CNC(=O)Nc1ccc2c(c1)C(=O)/C(=C/c1cn(C)c3nccc(N4CC5CCC(C4)O5)c13)O2", "note": "[Compound 232, 1-[(1-methyl-1H-imidazol-5-yl)methyl]-3-[(2Z)-2-{[1-methyl-4-(8-oxa-3-azabicyclo[3.2.1]oct-3-yl)-1H-pyrrolo[2,3-b]pyridin-3-yl]methylidene}-3-oxo-2,3-dihydro-1-benzofuran-5-yl]urea]", "values": [{"measurement": "pIC50", "setting": "PI3Kα", "result": 5.94}, {"measurement": "pIC50", "setting": "PI3Kγ", "result": "< 5.00"}, {"measurement": "pIC50", "setting": "mTOR", "result": 6.80}]}, {"smiles": "Cn1cc(/C=C2\\Oc3ccc(NC(=O)Nc4cccnc4)cc3C2=O)c2c(N3CCC(C(=O)N4CC5CCC4CO5)CC3)ccnc21", "note": "(stereo not drawn) [Compound 233, 1-[(2Z)-2-({1-methyl-4-[4-(2-oxa-5-azabicyclo[2.2.2]oct-5-ylcarbonyl)piperidin-1-yl]-1H-pyrrolo[2,3-b]pyridin-3-yl}methylidene)-3-oxo-2,3-dihydro-1-benzofuran-5-yl]-3-pyridin-3-ylurea]", "values": [{"measurement": "pIC50", "setting": "PI3Kα", "result": 6.71}, {"measurement": "pIC50", "setting": "PI3Kγ", "result": 5.76}, {"measurement": "pIC50", "setting": "mTOR", "result": 7.42}]}, {"smiles": "Cn1cc(/C=C2\\Oc3ccc(NC(=O)Nc4cccnc4)cc3C2=O)c2c(C(=O)N3CCCCC3)ccnc21", "note": "[Compound 234, 1-[(2Z)-2-{[1-methyl-4-(piperidin-1-ylcarbonyl)-1H-pyrrolo[2,3-b]pyridin-3-yl]methylidene}-3-oxo-2,3-dihydro-1-benzofuran-5-yl]-3-pyridin-3-ylurea]", "values": [{"measurement": "pIC50", "setting": "PI3Kα", "result": 6.60}, {"measurement": "pIC50", "setting": "PI3Kγ", "result": 5.60}, {"measurement": "pIC50", "setting": "mTOR", "result": "< 5.40"}]}, {"smiles": "CC(C)NC(=O)Nc1ccc2c(c1)C(=O)/C(=C/c1cn(C)c3nccc(N4CC5CCC(C4)O5)c13)O2", "note": "[Compound 235, 1-(1-methylethyl)-3-[(2Z)-2-{[1-methyl-4-(8-oxa-3-azabicyclo[3.2.1]oct-3-yl)-1H-pyrrolo[2,3-b]pyridin-3-yl]methylidene}-3-oxo-2,3-dihydro-1-benzofuran-5-yl]urea]", "values": [{"measurement": "pIC50", "setting": "PI3Kα", "result": 6.07}, {"measurement": "pIC50", "setting": "PI3Kγ", "result": 5.59}, {"measurement": "pIC50", "setting": "mTOR", "result": 7.14}]}, {"smiles": "C[C@H]1COCCN1c1ccnc2c1c(/C=C1\\Oc3ccc(NC(=O)Nc4cccnc4)cc3C1=O)cn2C", "note": "[Compound 238, 1-[(2Z)-2-({1-methyl-4-[(3S)-3-methylmorpholin-4-yl]-1H-pyrrolo[2,3-b]pyridin-3-yl}methylidene)-3-oxo-2,3-dihydro-1-benzofuran-5-yl]-3-pyridin-3-ylurea]", "values": [{"measurement": "pIC50", "setting": "PI3Kα", "result": 6.19}, {"measurement": "pIC50", "setting": "PI3Kγ", "result": 5.44}, {"measurement": "pIC50", "setting": "mTOR", "result": 6.89}]}, {"smiles": "C[C@@H]1CN(C2CCN(c3ccnc4c3c(/C=C3\\Oc5ccc(NC(=O)Nc6cccnc6)cc5C3=O)cn4C)CC2)C[C@H](C)O1", "note": "[Compound 239, 1-{(2Z)-2-[(4-{4-[(2R,6S)-2,6-dimethylmorpholin-4-yl]piperidin-1-yl}-1-methyl-1H-pyrrolo[2,3-b]pyridin-3-yl)methylidene]-3-oxo-2,3-dihydro-1-benzofuran-5-yl}-3-pyridin-3-ylurea]", "values": [{"measurement": "pIC50", "setting": "PI3Kα", "result": 6.49}, {"measurement": "pIC50", "setting": "PI3Kγ", "result": 6.13}, {"measurement": "pIC50", "setting": "mTOR", "result": 7.19}]}, {"smiles": "CCN(CCO)C(=O)c1ccc(-c2ccnc3c2c(/C=C2\\Oc4cccc(O)c4C2=O)cn3C)cc1", "note": "[Compound 243, N-ethyl-N-(2-hydroxyethyl)-4-{3-[(Z)-(4-hydroxy-3-oxo-1-benzofuran-2(3H)-ylidene)methyl]-1-methyl-1H-pyrrolo[2,3-b]pyridin-4-yl}benzamide]", "values": [{"measurement": "pIC50", "setting": "PI3Kα", "result": 6.78}, {"measurement": "pIC50", "setting": "PI3Kγ", "result": 6.66}, {"measurement": "pIC50", "setting": "mTOR", "result": 7.04}]}, {"smiles": "CCN(CC)C(=O)C1CCN(c2ccnc3c2c(/C=C2\\Oc4ccc(NC(=O)Nc5cccnc5)cc4C2=O)cn3C)CC1", "note": "[Compound 244, N,N-diethyl-1-{1-methyl-3-[(Z)-{3-oxo-5-[(pyridin-3-ylcarbamoyl)amino]-1-benzofuran-2(3H)-ylidene}methyl]-1H-pyrrolo[2,3-b]pyridin-4-yl}piperidine-4-carboxamide]", "values": [{"measurement": "pIC50", "setting": "PI3Kα", "result": 6.51}, {"measurement": "pIC50", "setting": "PI3Kγ", "result": 5.47}, {"measurement": "pIC50", "setting": "mTOR", "result": 6.94}]}, {"smiles": "Cn1cc(/C=C2\\Oc3cccc(O)c3C2=O)c2c(-c3ccc(C(=O)N4CCC(O)C4)cc3)ccnc21", "note": "(stereo not drawn) [Compound 245, (2Z)-4-hydroxy-2-[(4-{4-[(3-hydroxypyrrolidin-1-yl)carbonyl]phenyl}-1-methyl-1H-pyrrolo[2,3-b]pyridin-3-yl)methylene]-1-benzofuran-3(2H)-one]", "values": [{"measurement": "pIC50", "setting": "PI3Kα", "result": 7.54}, {"measurement": "pIC50", "setting": "PI3Kγ", "result": 7.27}, {"measurement": "pIC50", "setting": "mTOR", "result": 8.85}]}, {"smiles": "COCCN(C)C(=O)c1ccc(-c2ccnc3c2c(/C=C2\\Oc4ccc(NC(=O)Nc5cccnc5)cc4C2=O)cn3C)cc1", "note": "[Compound 247, N-(2-methoxyethyl)-N-methyl-4-{1-methyl-3-[(Z)-{3-oxo-5-[(pyridin-3-ylcarbamoyl)amino]-1-benzofuran-2(3H)-ylidene}methyl]-1H-pyrrolo[2,3-b]pyridin-4-yl}benzamide]", "values": [{"measurement": "pIC50", "setting": "PI3Kα", "result": 5.48}, {"measurement": "pIC50", "setting": "PI3Kγ", "result": 6.32}, {"measurement": "pIC50", "setting": "mTOR", "result": 7.52}]}, {"smiles": "CONC(=O)c1ccc(-c2ccnc3c2c(/C=C2\\Oc4ccc(NC(=O)Nc5cccnc5)cc4C2=O)cn3C)cc1", "note": "[Compound 248, N-methoxy-4-{1-methyl-3-[(Z)-{3-oxo-5-[(pyridin-3-ylcarbamoyl)amino]-1-benzofuran-2(3H)-ylidene}methyl]-1H-pyrrolo[2,3-b]pyridin-4-yl}benzamide]", "values": [{"measurement": "pIC50", "setting": "PI3Kα", "result": 6.01}, {"measurement": "pIC50", "setting": "PI3Kγ", "result": 6.32}, {"measurement": "pIC50", "setting": "mTOR", "result": 5.78}]}, {"smiles": "COC1CCN(C(=O)c2ccc(-c3ccnc4c3c(/C=C3\\Oc5cccc(O)c5C3=O)cn4C)cc2)C1", "note": "(stereo not drawn) [Compound 249, (2Z)-4-hydroxy-2-[(4-{4-[(3-methoxypyrrolidin-1-yl)carbonyl]phenyl}-1-methyl-1H-pyrrolo[2,3-b]pyridin-3-yl)methylene]-1-benzofuran-3(2H)-one]", "values": [{"measurement": "pIC50", "setting": "PI3Kα", "result": 7.70}, {"measurement": "pIC50", "setting": "PI3Kγ", "result": 7.59}, {"measurement": "pIC50", "setting": "mTOR", "result": 9.22}]}, {"smiles": "CN1CCN(C(=O)C2CCN(c3ccnc4c3c(/C=C3\\Oc5ccc(NC(=O)Nc6cccnc6)cc5C3=O)cn4C)CC2)CC1", "note": "[Compound 252, 1-{(2Z)-2-[(1-methyl-4-{4-[(4-methylpiperazin-1-yl)carbonyl]piperidin-1-yl}-1H-pyrrolo[2,3-b]pyridin-3-yl)methylidene]-3-oxo-2,3-dihydro-1-benzofuran-5-yl}-3-pyridin-3-ylurea]", "values": [{"measurement": "pIC50", "setting": "PI3Kα", "result": 5.34}, {"measurement": "pIC50", "setting": "PI3Kγ", "result": 5.90}, {"measurement": "pIC50", "setting": "mTOR", "result": 8.15}]}]}
